Legend:
[1] = system: JAK1-dependent STAT6 phosphorylation downstream of IL-13 stimulation in BEAS-2B human bronchial epithelial cells; experiment: JAK1 pathway assay in BEAS-2B cells (IL-13-pSTAT6, MSD); format: cell-based; conditions: read-out: IL13-pSTAT6 EC50 (uM)_BEAS-2B
Summary of the method: (§1)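 TF-1 cells starved of GM-CSF overnight, assayed serum-free; BEAS-2B cells in complete growth medium. Lysate pSTAT6 measured by MSD; EC50 derived.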

[2] = target: isolated recombinant JAK1 kinase domain (Homo sapiens (Human), UniProt P23458); experiment: JAK1 enzyme assay (Caliper LabChip, peptide phosphorylation); format: biochemical; conditions: isolated recombinant JAK1 kinase domain, 25 μM ATP
Sequence of isolated recombinant JAK1 kinase domain (P23458 875-1153): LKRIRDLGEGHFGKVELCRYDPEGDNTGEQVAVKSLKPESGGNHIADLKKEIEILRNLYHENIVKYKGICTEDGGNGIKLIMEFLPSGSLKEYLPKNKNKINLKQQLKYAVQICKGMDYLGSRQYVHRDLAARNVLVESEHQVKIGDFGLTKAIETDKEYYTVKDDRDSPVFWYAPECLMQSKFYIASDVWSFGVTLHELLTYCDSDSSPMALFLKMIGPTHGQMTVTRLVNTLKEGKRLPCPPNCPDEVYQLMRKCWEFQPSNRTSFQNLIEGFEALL

[3] = system: JAK1-dependent STAT6 phosphorylation downstream of IL-13 stimulation in TF-1 human erythroleukemia cells; experiment: JAK1 pathway assay in TF-1 cells (IL-13-pSTAT6, MSD); format: cell-based; conditions: Homo sapiens, TF-1, TF-1 cells, read-out: IL13-pSTAT6 EC50_TF-1
Summary of the method: as §1

[4] = target: isolated recombinant JAK2 kinase domain (Homo sapiens (Human), UniProt O60674); experiment: JAK2 enzyme assay (Caliper LabChip, peptide phosphorylation); format: biochemical; conditions: 25 μM ATP
Sequence of isolated recombinant JAK2 kinase domain (O60674 849-1124): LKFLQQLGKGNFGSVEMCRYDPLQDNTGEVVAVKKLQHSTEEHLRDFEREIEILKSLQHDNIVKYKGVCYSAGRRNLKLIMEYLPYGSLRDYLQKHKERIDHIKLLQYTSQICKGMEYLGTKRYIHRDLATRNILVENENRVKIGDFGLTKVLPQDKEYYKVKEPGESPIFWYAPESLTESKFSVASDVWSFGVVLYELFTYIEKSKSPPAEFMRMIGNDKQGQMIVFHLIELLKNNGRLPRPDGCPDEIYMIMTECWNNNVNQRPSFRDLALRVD

Row | SMILES | EC50 [1] [µM] | Ki [2] [nM] | EC50 [3] [nM] | Ki [4] [nM]
1 | CN1CCN(C(=O)Cn2cc(NC(=O)c3cnn4cccnc34)c(-c3cc(Cl)ccc3OC(F)F)n2)CC1 [Example 227, Pyrazolo[1,5-a]pyrimidine-3-carboxylic acid {3-(5-chloro-2-difluoromethoxyphenyl)-1-[2-(4-methylpiperazin-1-yl)-2-oxoethyl]-1H-pyrazol-4-yl}amide] | 0.0271 | 0.55 | 3.6 | 0.93
2 | Cc1ccc(OCCN(C)C2CCN(C(=O)Cn3cc(NC(=O)c4cnn5cccnc45)c(-c4cc(Cl)ccc4OC(F)F)n3)CC2)cc1 [Example 110, N-[3-[5-chloro-2-(difluoromethoxy)phenyl]-1-[2-[4-[methyl-[2-(4-methylphenoxy)ethyl]amino]-1-piperidyl]-2-oxo-ethyl]pyrazol-4-yl]pyrazolo[1,5-a]pyrimidine-3-carboxamide] | 0.0875 | 1.04 | 8.9 | 2.03
3 | CN(CC1(C#N)CCCCC1)C1CCN(C(=O)C2CCN(c3nc(-c4cc(Cl)ccc4OC(F)F)c(NC(=O)c4cnn5cccnc45)s3)CC2)CC1 [Example 204, N-[4-[5-chloro-2-(difluoromethoxy)phenyl]-2-[4-[4-[(1-cyanocyclohexyl)methyl-methyl-amino]piperidine-1-carbonyl]-1-piperidyl]thiazol-5-yl]pyrazolo[1,5-a]pyrimidine-3-carboxamide] | 0.172 | 2 | 7.9 | 1.41
4 | O=C(Nc1cn(CC(=O)N2CCC(CO)CC2)nc1-c1cc(Cl)ccc1OC(F)F)c1cnn2cccnc12 [Example 274, N-[3-[5-chloro-2-(difluoromethoxy)phenyl]-1-[2-[4-(hydroxymethyl)-1-piperidyl]-2-oxo-ethyl]pyrazol-4-yl]pyrazolo[1,5-a]pyrimidine-3-carboxamide] | 0.0131 | 0.34 | 3.2 | 0.91
5 | CN(CCc1ccc(Cl)cc1)C1CCN(C(=O)Cn2cc(NC(=O)c3cnn4cccnc34)c(-c3cc(Cl)ccc3OC(F)F)n2)CC1 [Example 94, N-[3-[5-chloro-2-(difluoromethoxy)phenyl]-1-[2-[4-[2-(4-chlorophenyl)ethyl-methyl-amino]-1-piperidyl]-2-oxo-ethyl]pyrazol-4-yl]pyrazolo[1,5-a]pyrimidine-3-carboxamide] | 0.0931 | 1.2 | 42.4 | 2.07
6 | CN(C)CC1CCN(c2nc(-c3cc(Cl)ccc3OC(F)F)c(NC(=O)c3cnn4cccnc34)s2)CC1 [Example 190, N-[4-[5-chloro-2-(difluoromethoxy)phenyl]-2-[4-[(dimethylamino)methyl]-1-piperidyl]thiazol-5-yl]pyrazolo[1,5-a]pyrimidine-3-carboxamide] | 0.0098 | 2.69 | 14.6 | 2.02
7 | O=C(CNCCn1cc(NC(=O)c2cnn3cccnc23)c(-c2cc(Cl)ccc2OC(F)F)n1)OC1CCCC1 [Example 307, cyclopentyl 2-[2-[3-[5-chloro-2-(difluoromethoxy)phenyl]-4-(pyrazolo[1,5-a]pyrimidine-3-carbonylamino)pyrazol-1-yl]ethylamino]acetate] | 0.025 | 1.45 | 6.1 | 0.59
8 | CN1CCN(C(=O)Cn2cc(NC(=O)c3cnn4cccnc34)c(-c3cc(Cl)ccc3OC(F)F)n2)C[C@H]1CO [Example 235, N-[3-[5-chloro-2-(difluoromethoxy)phenyl]-1-[2-[(3S)-3-(hydroxymethyl)-4-methyl-piperazin-1-yl]-2-oxo-ethyl]pyrazol-4-yl]pyrazolo[1,5-a]pyrimidine-3-carboxamide] | 0.114 | 0.58 | 21.3 | 1.08
9 | CN(CC1(C)COC1)C1CCN(c2nc(-c3cc(Cl)ccc3OC(F)F)c(NC(=O)c3cnn4cccnc34)s2)CC1 [Example 200, N-[4-[5-chloro-2-(difluoromethoxy)phenyl]-2-[4-[methyl-[(3-methyloxetan-3-yl)methyl]amino]-1-piperidyl]thiazol-5-yl]pyrazolo[1,5-a]pyrimidine-3-carboxamide] | 0.0254 | 1.24 | 5.9 | 1.07
10 | NC1CCN(C(=O)Cn2cc(NC(=O)c3cnn4cccnc34)c(-c3cc(Cl)ccc3OC(F)F)n2)CC1 [Example 66, N-[1-[2-(4-amino-1-piperidyl)-2-oxo-ethyl]-3-[5-chloro-2-(difluoromethoxy)phenyl]pyrazol-4-yl]pyrazolo[1,5-a]pyrimidine-3-carboxamide] | 0.335 | 0.58 | 35.6 | 
11 | CC1(O)CCN(C(=O)Cn2cc(NC(=O)c3cnn4cccnc34)c(-c3cc(Cl)ccc3OC(F)F)n2)CC1 [Example 280, N-[3-[5-chloro-2-(difluoromethoxy)phenyl]-1-[2-(4-hydroxy-4-methyl-1-piperidyl)-2-oxo-ethyl]pyrazol-4-yl]pyrazolo[1,5-a]pyrimidine-3-carboxamide] | 0.0215 | 0.39 | 4.3 | 0.81
12 | CCN(Cc1ccnc(C)c1)C(=O)Cn1cc(NC(=O)c2cnn3cccnc23)c(-c2cc(Cl)ccc2OC(F)F)n1 [Example 299, N-[3-[5-chloro-2-(difluoromethoxy)phenyl]-1-[2-[ethyl-[(2-methyl-4-pyridyl)methyl]amino]-2-oxo-ethyl]pyrazol-4-yl]pyrazolo[1,5-a]pyrimidine-3-carboxamide] | 0.0104 | 0.38 | 4.1 | 0.39
13 | CN1CC[C@@H]2[C@H](CCN2C(=O)Cn2cc(NC(=O)c3cnn4cccnc34)c(-c3cc(Cl)ccc3OC(F)F)n2)C1 [Example 61, N-[1-[2-[(3aR,7aR)-5-methyl-3,3a,4,6,7,7a-hexahydro-2H-pyrrolo[3,2-c]pyridin-1-yl]-2-oxo-ethyl]-3-[5-chloro-2-(difluoromethoxy)phenyl]pyrazol-4-yl]pyrazolo[1,5-a]pyrimidine-3-carboxamide] | 0.0324 | 0.23 | 27.5 | 0.68
14 | O=C(Nc1cn(CC(=O)N2C[C@H]3CN(CC4CCC4)C[C@H]3C2)nc1-c1cc(Cl)ccc1OC(F)F)c1cnn2cccnc12 [Example 40, N-[1-[2-[(3aR,6aS)-2-(cyclobutylmethyl)-1,3,3a,4,6,6a-hexahydropyrrolo[3,4-c]pyrrol-5-yl]-2-oxo-ethyl]-3-[5-chloro-2-(difluoromethoxy)phenyl]pyrazol-4-yl]pyrazolo[1,5-a]pyrimidine-3-carboxamide] | 0.128 | 0.65 | 3.8 | 0.61
15 | Nc1nn2cccnc2c1C(=O)Nc1cn([C@H]2C[C@@H](N)C2)nc1-c1cc(Cl)ccc1OC(F)F [Example 297, 2-Amino-pyrazolo[1,5-a]pyrimidine-3-carboxylic acid [1-(3-amino-cyclobutyl)-3-(5-chloro-2-difluoromethoxy-phenyl)-1H-pyrazol-4-yl]-amide] | 0.0308 | 0.32 | 7.1 | 0.07
16 | CC1(CN(CCC(F)(F)F)C2CCN(C(=O)Cn3cc(NC(=O)c4cnn5cccnc45)c(-c4cc(Cl)ccc4OC(F)F)n3)CC2)COC1 [Example 117, N-[3-[5-chloro-2-(difluoromethoxy)phenyl]-1-[2-[4-[(3-methyloxetan-3-yl)methyl-(3,3,3-trifluoropropyl)amino]-1-piperidyl]-2-oxo-ethyl]pyrazol-4-yl]pyrazolo[1,5-a]pyrimidine-3-carboxamide] | 0.0546 | 0.51 | 8.6 | 1.13
17 | CN(C)C1CCN(c2nc(-c3cc(Cl)ccc3OC(F)F)c(NC(=O)c3cnn4cccnc34)s2)CC1 [Example 188, Pyrazolo[1,5-a]pyrimidine-3-carboxylic acid [4-(5-chloro-2-difluoromethoxy-phenyl)-2-(4-dimethylamino-piperidin-1-yl)-thiazol-5-yl]-amide] | 0.0349 | 1.26 | 5.8 | 
18 | O=C(Nc1cn(CC(=O)N2CCCCC2)nc1-c1cc(Cl)ccc1OC(F)F)c1cnn2cccnc12 [Example 308, N-[3-[5-chloro-2-(difluoromethoxy)phenyl]-1-[2-oxo-2-(1-piperidyl)ethyl]pyrazol-4-yl]pyrazolo[1,5-a]pyrimidine-3-carboxamide] | 0.0236 |  | 1.5 | 0.55
19 | C[N+](C)(CCCc1ccccc1)C1CCN(C(=O)Cn2cc(NC(=O)c3cnn4cccnc34)c(-c3cc(Cl)ccc3OC(F)F)n2)CC1 [Example 124, [1-[2-[3-[5-chloro-2-(difluoromethoxy)phenyl]-4-(pyrazolo[1,5-a]pyrimidine-3-carbonylamino)pyrazol-1-yl]acetyl]-4-piperidyl]-dimethyl-(3-phenylpropyl)ammonium] | 0.535 |  | 87.9 | 
20 | COCCN1CCN(C(=O)Cn2cc(NC(=O)c3cnn4cccnc34)c(-c3cc(Cl)ccc3OC(F)F)n2)CC1 [Example 229, N-[3-[5-chloro-2-(difluoromethoxy)phenyl]-1-[2-[4-(2-methoxyethyl)piperazin-1-yl]-2-oxo-ethyl]pyrazol-4-yl]pyrazolo[1,5-a]pyrimidine-3-carboxamide] | 0.0516 | 0.38 | 3.3 | 
21 | CN(C1CCN(C(=O)Cn2cc(NC(=O)c3cnn4cccnc34)c(-c3cc(Cl)ccc3OC(F)F)n2)CC1)C1(C#N)CC1 [Example 431, N-(3-(5-chloro-2-(difluoromethoxy)phenyl)-1-(2-(4-((1-cyanocyclopropyl)(methyl)amino)piperidin-1-yl)-2-oxoethyl)-1H-pyrazol-4-yl)pyrazolo[1,5-a]pyrimidine-3-carboxamide] | 0.0029 | 0.29 |  | 0.74
